In BindingDB's records for doi:10.1016/j.chembiol.2009.01.006 (Johns Hopkins School of Medicine, 2009):

Tests used:
[1] = biological target: T1, Methionine aminopeptidase (Plasmodium falciparum Santa Lucia, UniProt W7G645); assay: Enzyme Inhibiton Assay
T1 sequence (W7G645 whole entry): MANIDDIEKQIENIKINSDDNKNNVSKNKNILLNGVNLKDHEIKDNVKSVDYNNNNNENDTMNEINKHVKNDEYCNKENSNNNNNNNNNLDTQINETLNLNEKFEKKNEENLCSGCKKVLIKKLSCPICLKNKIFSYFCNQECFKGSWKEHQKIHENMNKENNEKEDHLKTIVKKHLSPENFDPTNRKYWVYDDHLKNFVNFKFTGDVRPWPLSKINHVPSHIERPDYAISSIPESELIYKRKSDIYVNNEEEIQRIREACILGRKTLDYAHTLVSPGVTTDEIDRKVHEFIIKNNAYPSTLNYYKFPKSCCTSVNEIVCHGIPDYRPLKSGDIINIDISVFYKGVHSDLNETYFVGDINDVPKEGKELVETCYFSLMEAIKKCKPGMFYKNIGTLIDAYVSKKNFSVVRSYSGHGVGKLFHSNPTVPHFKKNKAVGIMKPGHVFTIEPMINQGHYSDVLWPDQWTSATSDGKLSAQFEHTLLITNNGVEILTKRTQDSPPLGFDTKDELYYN
Excerpt: (§1) Enzyme affinity assay using Fumarranol analogs with plasmodium falciparum methionine aminopeptidases (PfMetAPs).

[2] = biological target: Methionine aminopeptidase 2 (Plasmodium falciparum, UniProt Q8TA23); assay: Enzyme Inhibiton Assay
Excerpt: as §1

Sequence of Methionine aminopeptidase 2 (Q8TA23 whole entry): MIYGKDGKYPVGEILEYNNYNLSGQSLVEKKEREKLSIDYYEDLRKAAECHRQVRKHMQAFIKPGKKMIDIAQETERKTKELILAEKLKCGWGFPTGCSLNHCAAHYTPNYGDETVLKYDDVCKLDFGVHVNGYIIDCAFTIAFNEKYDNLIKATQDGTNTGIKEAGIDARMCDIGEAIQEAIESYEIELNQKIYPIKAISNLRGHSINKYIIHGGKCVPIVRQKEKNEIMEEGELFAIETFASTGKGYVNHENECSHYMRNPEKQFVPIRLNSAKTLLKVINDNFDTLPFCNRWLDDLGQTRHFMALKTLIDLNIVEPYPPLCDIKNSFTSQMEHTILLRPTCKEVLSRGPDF

**Q.** With `CO[C@@H]1[C@H](OC(=O)NC(=O)CCl)CC[C@]2(CO2)[C@H]1[C@@]1(C)O[C@@H]1CC=C(C)C` [(3R,4S,5S,6R)-5-methoxy-4-[(2R,3R)-2-methyl-3-(3-methylbut-2-en-1-yl)oxiran-2-yl]-1-oxaspiro[2.5]octan-6-yl N-(2-chloroacetyl)carbamate] as the molecule, how does the IC50 [1] read?
**A.** > 300 µM

**Q.** What about the IC50 [2] of the same molecule?
**A.** 2 µM

**Q.** With `CO[C@]12C(=O)/C(=C/c3ccco3)C[C@@]1(CO)C2[C@@]1(C)O[C@@H]1CC=C(C)C` (some centres not stated) [Fumarranol Analog, 9] as the molecule, how does the IC50 [2] read?
**A.** > 500 µM

**Q.** For `CO[C@]12C(=O)CC[C@@]1(CO)C2/C(C)=C/CC=C(C)C` (some centres not stated) [Fumarranol Analog, 8], which IC50 [2] is on record?
**A.** > 500 µM

**Q.** With `CO[C@@]12C([C@@]3(C)O[C@@H]3CC=C(C)C)[C@]1(CO)CC[C@H]2O` (some centres not stated) [Fumarranol Analog, 10] as the molecule, how does the IC50 [2] read?
**A.** > 500 µM

**Q.** For `CO[C@]12C(=O)CC[C@@]1(C=O)C2[C@@]1(C)O[C@@H]1CC=C(C)C` (some centres not stated) [Fumarranol Analog, 7], which IC50 [2] is on record?
**A.** > 500 µM

**Q.** For `CO[C@]12C(=O)CC[C@@]1(CBr)C2[C@@]1(C)O[C@@H]1CC=C(C)C` (some centres not stated) [Fumarranol Analog, 6], which IC50 [2] is on record?
**A.** > 500 µM
